Measured values published in patent US10273226B2, “Pyrazolyl-heteroarylamides as pesticides” (Bayer Animal Health GmbH, priority 2014, dated 2019).

Key:
Type in all cases: in vivo
Boophilus microplus = Boophilus microplus injection test; settings: application rate 20 μg/animal; injection into abdomen; assessed after 7 days
Outline: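 Read-out is % efficacy from fertile egg laying at 7 days: 100% means no tick laid fertile eggs, 0% means all eggs fertile. Each of 5 engorged adult females received 1 μl of DMSO test solution injected abdominally.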

Spodoptera frugiperda = Spodoptera frugiperda spray test; settings: application rate 100 g/ha; caterpillars; after 7 days
Outline: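 Percent kill of armyworm caterpillars was scored 7 days after they were placed on dried, sprayed Zea mays leaf discs. Spray solutions were made by dissolving active ingredient in solvent and diluting with 1000 ppm emulsifier water.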

Phaedon cochleariae = Phaedon cochleariae spray test; settings: application rate 100 g/ha; larvae; after 7 days
Outline: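 Mortality of Phaedon larvae, in %, was read 7 days after release onto sprayed, dried Brassica pekinensis leaf discs. Test dilutions were prepared in water with 1000 ppm emulsifier. A score of 0% means no larvae died and 100% means all were killed.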

[1] = test system: Aedes aegypti strain MONHEIM; assay: Aedes test (AEDSAE surface treatment); settings: 24 hours after contact, read-out: efficacy (mortality in %)
Procedure: Aedes Test (AEDSAE Surface Treatment)
Solvent: acetone+2000 ppm rapeseed oil methyl ester (RME)
To produce an appropriate active ingredient formulation, the active ingredient is dissolved in the solvent (2 mg/ml). The active ingredient formulation is pipetted onto a glazed tile and, after it has dried off, adult mosquitoes of the species Aedes aegypti strain MONHEIM are placed onto the treated tile. The exposure time is 30 minutes.
24 hours after contact with the treated surface, mortality in % is determined. 100% means that all the mosquitoes have been killed; 0% means that none of the mosquitoes have been killed.

Ctenocephalides felis [2] = assay: Ctenocephalides felis in vitro contact test with adult cat fleas; settings: application rate 5 μg/cm^2 (500 g/ha); after 48 h; fleas dead or moribund
Outline: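 Adult Ctenocephalides felis (5-10 per tube) were held 48 h at room temperature in tubes whose inner walls carried dried active ingredient, e.g. 5 μg/cm^2 from a 900 ppm acetone coating. Percent efficacy reflects fleas motionless or uncoordinated after being knocked to the tube base.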

[3] = test system: Boophilus microplus Parkhurst strain, SP-resistant; assay: Boophilus microplus dip test; settings: application rate 100 ppm, assessed after 7 days
Procedure: Boophilus microplus—Dip Test
Test animals: cattle ticks (Boophilus microplus) Parkhurst strain, SP-resistant
Solvent: dimethyl sulphoxide
10 mg of active ingredient are dissolved in 0.5 ml of dimethyl sulphoxide. For the purpose of producing a suitable formulation, the active ingredient solution is diluted with water to the concentration desired in each case.
This active ingredient formulation is pipetted into tubes. 8-10 adult engorged female cattle ticks (Boophilus microplus) are transferred into a further tube with holes. The tube is immersed into the active ingredient formulation, and all the ticks are completely wetted. After the liquid has run out, the ticks are transferred on filter discs into plastic dishes and stored in a climate-controlled room.
Efficacy is assessed after 7 days by laying of fertile eggs. Eggs which are not visibly fertile are stored in a climate-controlled cabinet until the larvae hatch after about 42 days. An efficacy of 100% means that none of the ticks has laid any fertile eggs; 0% means that all the eggs are fertile.

Ctenocephalides felis [4] = assay: Ctenocephalides felis oral test; settings: application rate 100 ppm in citrated cattle blood; after 2 days
Outline: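 Steps: active ingredient dissolved in dimethyl sulphoxide; blood dilution prepared; fleas (about 20, unfed adults) held in gauze-closed chamber beneath a cylinder of treated blood; feeding via parafilm; kill percentage determined after 2 days.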

Musca domestica = Musca domestica test; settings: application rate 100 ppm; adult houseflies; after 2 days
Outline: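 First, 10 mg compound was taken up in 0.5 ml DMSO and then brought with water to the required concentration. This was applied with sugar solution to a sponge in vessels holding 10 adult flies; kill was assessed after 2 days.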

Lucilia cuprina = Lucilia cuprina test; settings: application rate 100 ppm; L1 larvae; after 2 days
Outline: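 Mortality read at 2 days as percent larvae killed (100% = all, 0% = none). Test used roughly 20 first-instar larvae on minced horsemeat dosed with water-diluted DMSO formulation of compound.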

Myzus persicae = Myzus persicae spray test; settings: application rate 100 g/ha; after 6 days
Outline: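 Efficacy, as % of aphids killed (0-100%), was scored 6 days after spraying. Test solutions were made in solvent diluted with water containing 1000 ppm emulsifier. They were sprayed onto Brassica pekinensis leaf discs carrying mixed-stage Myzus persicae.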

With `Cn1nc(C(F)(F)C(F)(F)F)c(C(F)(F)F)c1-n1cc(-c2cccc(NC(=O)c3ccncc3)c2)cn1` [Example 1-001, N-{3-[2′-Methyl-5′-(pentafluoroethyl)-4′-(trifluoromethyl)-2′H-1,3′-bipyrazol-4-yl]-phenyl}isonicotinamide] the “efficacy (laying of fertile eggs)” value (Boophilus microplus) was 100%, the efficacy (Spodoptera frugiperda) was 100% and the efficacy (Phaedon cochleariae) was 100%. For the same molecule, the mortality at 20 mg/m2 ([1]; application rate 20 mg/m^2, exposure 30 minutes) was 90 to 100%, the mortality at 100 mg/m2 ([1]; application rate 100 mg/m^2, exposure 30 minutes) was 90 to 100% and the efficacy (Ctenocephalides felis [2]) was 100%. The “efficacy (laying of fertile eggs)” value [3] was 95%, the “efficacy (kill in %)” value (Ctenocephalides felis [4]) was 100% and the “efficacy (kill in %)” value (Musca domestica) was 100%. For the same molecule, the “efficacy (kill in %)” value (Lucilia cuprina) was 100% and the efficacy (Myzus persicae) was 100%.
